How the values were obtained:
[1] = Solubility of the compound in PBS buffer and 0.5% DMSO at 200 uM by LC-MS analysis; type: physicochemical
[2] = Metabolic stability in male CD-1 mouse liver microsomes assessed as parent compound remaining measured after 30 mins in presence of NADPH regenerating system by LC-MS analysis; type: ADME, Microsome; conditions: read-out: Stability
in vitro [3] = conditions: male, CD-1, mouse, liver microsomes
[4] = Metabolic stability in human liver microsomes assessed as half life measured after 1 hr in presence of NADPH regenerating system by LC-MS analysis; type: ADME, Microsome
[5] = Metabolic stability in human liver microsomes assessed as parent compound remaining measured after 30 mins in presence of NADPH regenerating system by LC-MS analysis; type: ADME, Microsome; conditions: read-out: Stability
in vitro [6] = conditions: male, Sprague-Dawley, rat, liver microsomes
[7] = Permeability of the compound in PBS buffer at pH 7.4 at 200 uM measured after 5 hrs by PAMPA assay; type: ADME; conditions: for Papp at 5 h, 200 µM: PAMPA, pH 7.4, read-out: permeability
[8] = Metabolic stability in male Sprague-Dawley rat liver microsomes assessed as parent compound remaining measured after 30 mins in presence of NADPH regenerating system by LC-MS analysis; type: ADME, Microsome; conditions: read-out: Stability

Row | Compound | solubility [1] | remaining at 0.5 h [2] [%] | half-life at 1 h (in vitro [3]) [min] | half-life [4] [min] | remaining at 0.5 h [5] [%] | half-life at 1 h (in vitro [6]) [min] | Papp at 5 h, 200 µM [7] [×10⁻⁶ cm/s] | remaining at 0.5 h [8] [%] | permeability ([7]; pampa, pH 7.4, 5 h, 200 µM)
1 | COc1cccc(S(=O)(=O)NCc2cccc(C(NC(=O)c3cccc4c3-c3ccccc3C4=O)C(=O)O)c2)c1 (centres undefined) | soluble |  |  |  |  |  |  |  | 
2 | COc1ccc(S(=O)(=O)NCc2cccc(C(NC(=O)c3cccc4c3-c3ccccc3C4=O)C(=O)O)c2)cc1 (centres undefined) |  | < 3 | 3.6 |  |  |  |  |  | 
3 | CN(C)c1cccc(S(=O)(=O)NCc2cccc([C@@H](NC(=O)c3cccc4c3-c3ccccc3C4=O)C(=O)O)c2)c1 | soluble |  |  |  |  |  |  |  | 
4 | CCOc1ccc(S(=O)(=O)N2CCc3ccc(C(NC(=O)c4cccc5c4-c4cccnc4C5=O)C(=O)O)cc3C2)cc1C#N (centres undefined) |  | 39 | 25 |  |  |  |  |  | 
5 | Cn1c2ccccc2c2c(C(=O)NC(C(=O)O)c3ccc4c(c3)CN(S(=O)(=O)c3cccc(Br)c3)CC4)cccc21 (centres undefined) |  | < 3 | 5.4 |  |  |  |  |  | 
6 | Cn1c2ccccc2c2c(C(=O)NC(C(=O)O)c3ccc4c(c3)CN(S(=O)(=O)c3cccc(C#N)c3)CC4)cccc21 (centres undefined) |  | 22 | 15 | 200 | 89 | 400 | 2.2 | 92 | 
7 | CCOc1ccc(S(=O)(=O)N2CCc3ccc(C(NC(=O)c4cccc5c4c4ccccc4n5C)C(=O)O)cc3C2)cc1C#N (centres undefined) |  | 8 | 8 | 47 | 66 | 280 | 4.7 | 86 | 
8 | N#Cc1cc(S(=O)(=O)N2CCc3ccc(C(NC(=O)c4cccc5c4-c4ccccc4C5=O)C(=O)O)cc3C2)ccc1F (centres undefined) |  | < 3 | 3.2 | 4.5 | < 3 | 78 |  | 77 | 
9 | O=C(NC(C(=O)O)c1ccc2c(c1)CN(S(=O)(=O)c1cccc(Br)c1)CC2)c1cccc2c1-c1ccccc1C2=O (centres undefined) |  | 0 | 3.3 |  |  |  |  |  | 
10 | Cn1c2ccccc2c2c(C(=O)NC(C(=O)O)c3ccc4c(c3)CN(S(=O)(=O)c3ccc(F)c(C#N)c3)CC4)cccc21 (centres undefined) |  | 16 | 13 | 51 | 64 | 240 | 4.7 | 86 | 
11 | COc1ccc(S(=O)(=O)N2CCc3ccc(C(NC(=O)c4cccc5c4-c4ccccc4C5=O)C(=O)O)cc3C2)cc1 (centres undefined) | soluble | < 3 | 3.8 |  |  |  |  |  | Permeable
12 | CCOc1ccc(S(=O)(=O)N2CCc3ccc(C(NC(=O)c4cccc5c4-c4ccccc4C5F)C(=O)O)cc3C2)cc1C#N (centres undefined) |  | 19 | 12 |  |  |  |  |  | 
13 | CCOc1ccc(S(=O)(=O)N2CCc3ccc(C(NC(=O)c4cccc5c4-c4ccccc4C5=O)C(=O)O)cc3C2)cc1C#N (centres undefined) |  | 3 | 3.8 | 5.1 | < 3 | 99 |  | 78 | 
14 | N#Cc1cccc(S(=O)(=O)N2CCc3ccc(C(NC(=O)c4cccc5c4-c4ccccc4C5=O)C(=O)O)cc3C2)c1 (centres undefined) |  | 7.5 | 6.1 | 6.1 | < 3 | 130 |  | 83 | 
15 | COc1ccc(S(=O)(=O)N2CCc3ccc(C(NC(=O)c4cccc5c4-c4ccccc4C5=O)C(=O)O)cc3C2)cc1C#N (centres undefined) |  | 3.5 | 4.5 |  |  |  |  |  | 
16 | CCOc1ccc(S(=O)(=O)N2CCc3ccc(C(NC(=O)c4cccc5c4-c4ccccc4C5)C(=O)O)cc3C2)cc1C#N (centres undefined) |  | < 3 | 4.7 |  |  |  |  |  | 

Reference: ChEMBL document CHEMBL6092188, “Structure-Guided Conformational Restriction Leading to High-Affinity, Selective, and Cell-Active Tetrahydroisoquinoline-Based Noncovalent Keap1-Nrf2 Inhibitors” (J Med Chem, 2024)
